Results published in paper PMC10897598, “TwinF interface inhibitor FP802 stops loss of motor neurons and mitigates disease progression in a mouse model of ALS” (Cell Reports Medicine, 2024).
pIC50: −log10 of the molar value. Read-outs that look alike come from different tables or passages of the source.

What was measured:
[1] = tested on: primary mouse cortical neurons; settings: FP802 10 μM, 30 min pre-incubation, NMDA 20 μM, 2 h
Protocol: Primary mouse cortical neurons were pre-incubated with FP802 (10 μM) or vehicle for 30 min before a 2-h treatment with either bicuculline (Bic, 50 μM) to induce action potential (AP) bursting or NMDA (20 μM) to induce excitotoxic insults. The mRNA levels of Arc, Atf3, Bdnf, c-Fos, Inhibin beta A, and Npas4 were assessed by RT-qPCR. Data represent means ± SD, n = 3; ns: no significant difference, ∗p < 0.05, ∗∗p < 0.01, ∗∗∗p < 0.001, two-way ANOVA followed by Dunnett's multiple comparisons.
Primary mouse cortical neurons were prepared as previously described.[43]^,[44] Briefly, brain cortices from neonatal mice (C57/Bl6, RRID:MGI:7264769) were removed and cut into small pieces in the dissociation medium (in mM: 81.8 Na2SO4, 30 K2SO4, 15.85 MgCl2, 0.25 CaCl2, 1.0 HEPES, 1050.0 kynurenic acid; 0.2% phenol red and 0.36% glucose). The tissues were then digested with papain latex (10 units/mL) in the dissociation medium supplemented with 0.45 mg/mL L-cysteine for two times of 15 min in a 37°C water bath with stirring at 15 rpm. Then the tissue was washed twice with the dissociation medium and incubated with trypsin inhibitor (0.01 g/mL) in dissociation medium for 3 × 5 min. The samples were then triturated into single cell solution and plated at a density of 0.25 × 10^6 cell per well in 24-well plates, which have been pretreated with poly-D-lysine (26.7 mg/μL) and laminin (6.7 mg/μL). […]

[2] = tested on: primary mouse cortical neurons; experiment: Glutamate neurotoxicity assay in primary cortical neurons; assay type: cell-based; settings: Cortical neurone, 20 μM glutamate, compound added 30 min prior, nuclear mCherry-positive neurons, read-out: IC50, protective activity against glutamate-mediated neurotoxicity
Protocol: On DIV10, vehicle (DMSO) or FP802 were added to the primary cortical cultures 30 min prior to glutamate insult. Images were acquired following the glutamate application for 24 h with 2 h intervals, where 9 images were obtained via a 20x objective for each condition at each time point with IncuCyte S3 Live-Cell Analysis System (Sartorius AG, Germany).

[3] = tested on: human iPSC-derived forebrain organoids; experiment: NMDA-induced neurotoxicity in human iPSC-derived forebrain organoids; assay type: cell-based; settings: for pIC50: Homo sapiens, NMDA 300 μM, read-out: IC50, protection against NMDA-induced neurotoxicity
Protocol: The generation of human-iPSC-derived forebrain organoids was carried out in accordance with the regulations of Heidelberg University. The sporadic ALS iPSC line and the SOD1^G94A ALS iPSC line were purchased from Cedars-Sinai (CS2XWCiALS-nxx and CS2RJViALS-nxx). The healthy control iPSC lines were from Dr. Jochen Utikal (DKFZ, Germany). Forebrain organoids were generated and maintained as described previously.[37]^,[45] Briefly, hiPSCs were dissociated into single cells by Accutase and aggregated in round bottom 96-microwell plates with 5 min centrifugation at 600 rpm. On the second day, hiPSC aggregates were collected and transferred into low attachment 35 mm dishes (24 aggregates/dish) and kept in neural induction medium (DMEM/F12 medium supplemented with 1× penicillin/streptomycin, 1× Normocin, 1× GlutaMAX, 1× N-2 supplement, 2× B27 without vitamin A, 500 nM dorsomorphin, 50 ng/mL recombinant human noggin, 10 μM SB431542, 2 μM IWP-2, 1 μM cyclopamine, and 0.1% β-mercaptoethanol) for 3 days with a daily medium change. Recombinant human FGF (10 ng/mL) was present in neural induction medium from day 4 to day 7 with one medium change on day 5.5. On day 7, neural induction medium was changed to proliferation medium (neurobasal medium supplemented with 1× GlutaMAX, 1× penicillin/streptomycin, 1× Normocin, 1× B27 without vitamin A, 10 ng/mL recombinant human FGF, 10 ng/mL recombinant human EGF, 2 μM IWP-2, and 1 μM cyclopamine) for two weeks with medium change every 2–3 days. In week 4–5, the proliferation medium was changed to differentiation medium (neurobasal medium supplemented with 1× GlutaMAX, 1× penicillin/streptomycin, 1× Normocin, 10 ng/mL recombinant human BDNF, and 10 ng/mL recombinant human NT-3) with medium change every 2–3 days. From week 6, the organoids were kept in the maturation medium (BrainPhys medium supplemented with 1× GlutaMAX, 1× penicillin/streptomycin, 1× Normocin) until week 18–20 when they were used for experiments.
The analysis of forebrain organoid cell types that undergo NMDA-induced cell death was done using immunostainings of cryosections of 20-week-old forebrain organoids with antibodies against the neuronal markers, NeuN and Myelin transcription factor 1 like (Myt1L) protein, and the astrocyte marker, glial fibrillary acidic protein (GFAP) using the following procedure. All organoids were washed with PBS twice and fixed using 4% paraformaldehyde in PBS for 30 min, followed by 24 h incubation with 30% sucrose solution in PBS. Organoids were snap frozen on dry ice in cryoprotectants and 30 μm cryosections were prepared for staining. […] Cells stained with NeuN, Myt1L, and Hoechst were automatically counted with ImageJ with the particle analyzer with a self-developed macro using the Binary-Watershed function, size exclusion was set at 60 μm^2. NeuN-positive and Myt1L-positive post-mitotic neurons were counted in confocal section z-stacks of whole organoids (5–8 organoids from 2 batches) with ImageJ with the particle analyzer with a self-developed macro using the Binary-Watershed function, size exclusion was set at 60 μm^2 and expressed as a percentage of total Hoechst-stained nuclei. GFAP staining was quantified by measuring the fluorescent signals of z-stacks of confocal sections of whole organoids (5–6 organoids from 2 batches) using ImageJ and expressed as arbitrary units. […]

30 common targets = experiment: Pharmacology safety screening, radioligand binding assays; settings: 10 µM; significant = over 50% inhibition or stimulation
Protocol: Pharmacology safety of FP802 was evaluated in radio ligand binding assays carried out by Eurofins Panlabs Discovery Services Taiwan, Ltd. Significant responses are defined as over 50% inhibition or stimulation in the primary assays.
Table S1. Pharmacology safety profile of FP802. […]

[4] = Hematology of treated SOD1G93A mice; assay type: in vivo, mouse; settings: 40 mg/kg/day s.c. pump
Protocol: All hematology and most serum clinical chemistry analyses were carried out by IDEXX Laboratories, Germany. The neurofilament light chain levels in serum were determined by PBL Assay Science (USA) using the Simoa NF-light Advantage Kit (Quanterix Cat #103186).
Vehicle FP802 n Significance 95% Interval
Anisocytosis (%) 0 0 4 n.a. -
Band neutrophils 0 0 4 n.a. -
Basophils (%) 0 0 4 n.a. -
Atypical cells 0 0 4 n.a. -
Table S2. Hematology of SOD1G93A mice treated with vehicle or FP802.
FP802 delivered with a subcutaneously implanted ALZET osmotic pump at 40 mg/kg/day for 4 weeks starting at
References were from Charles
River Laboratories datasheets for C57BL6 mice. Related to Figure 2.

For `CCN(CCN)Cc1cccc(Cl)c1` [FP802], the “transcriptional shut-off induced by eNMDARs” value [1] was “eliminated”, the “NMDA bath application-induced expression of IEGs Atf3, Arc, Bdnf, cFos, Inhibin beta A, Npas4” value ([1]; RT-qPCR, levels comparable to bicuculline-induced AP bursting) was “boosted” and the pIC50 [2] was 5.06. The pIC50 ([3]; SOD1G94A ALS organoids) was 5.05, the pIC50 ([3]; healthy control-1 organoids) was 4.59 and the pIC50 ([3]; healthy control-2 organoids) was 4.82. For the same molecule, the pIC50 ([3]; sporadic ALS organoids) was 5.03, the “NMDA-induced death of neurons in ALS patient-derived organoids” value ([3]; NMDA 300 μM 24 h, NeuN/Myt1L immunostaining and viability, dose-dependent) was “effectively blocked” and the “binding activities in radioligand binding safety panel” value (30 common targets) was “No significant binding activities”. For the same molecule, the Anisocytosis ([4]; 4 weeks) was 0%, the Atypical cells ([4]; 4 weeks) was 0 and the Band neutrophils ([4]; 4 weeks) was 0. For the same molecule, the Basophils ([4]; 4 weeks) was 0%, the Eosinophils ([4]; 4 weeks) was 0.25 ± 0.50% and the Hematocrit ([4]; 4 weeks) was 50.25 ± 1.71%. The Hemoglobin ([4]; 4 weeks) was 14.13 ± 0.68 g/dL, the Leukocytes ([4]; 4 weeks) was 3.53 ± 1.32 G/L and the Lymphocyte ([4]; 4 weeks) was 71.50 ± 5.57%. It also gave an MCH ([4]; 4 weeks) of 14.00 ± 0.12 pg, an MCHC ([4]; 4 weeks) of 28.50 ± 0.58 g/dL and an MCV ([4]; 4 weeks) of 49.75 ± 0.50 fL. It also gave a Monocyte ([4]; 4 weeks) of 4.25 ± 1.26%, a Reticulocyte ([4]; 4 weeks) of 5.10 ± 0.81% and a Segmented neutrophils ([4]; 4 weeks) of 22.50 ± 6.40%. The Thrombocytes ([4]; 4 weeks) was 1506.00 ± 174.68 G/L, the “adverse effects on the hematology” value ([4]; 4 weeks) was “no adverse effects” and the Erythrocyte ([4]; 4 weeks from 15 weeks of age) was 10.08 ± 0.38 T/L.
